Experimental data from ChEMBL document CHEMBL1147514 (Bioorg Med Chem Lett, 2004).
Several values for one entry are separate records, joined by “and”; a condition that tells them apart may be missing. Equal values may be shown once.

Experiments:
[1] = molecular target: T1, Neuronal acetylcholine receptor; alpha4/beta4 (Rattus norvegicus, UniProt P09483+P12392); experiment: Functional potency measured as stimulation at rat Nicotinic acetylcholine receptor alpha4-beta4 expressed in Xenopus oocytes; format: cell-based, Oocyte
[2] = molecular target: Neuronal acetylcholine receptor; alpha4/beta4 (Rattus norvegicus) (UniProt P09483+P12392); experiment: Functional potency measured as maximum stimulation at rat Nicotinic acetylcholine receptor alpha4-beta4 expressed in Xenopus oocytes; format: cell-based; conditions: Oocyte
[3] = molecular target: Neuronal acetylcholine receptor; alpha2/beta2 (Rattus norvegicus, UniProt P12389+P12390); experiment: Binding affinity towards rat alpha2-beta2 neuronal nAChR expressed in Xenopus oocytes using [3H]epibatidine as radioligand; format: cell-based, Oocyte
[4] = molecular target: Neuronal acetylcholine receptor; alpha3/beta4 (Rattus norvegicus) (UniProt P04757+P12392); experiment: Functional potency measured as maximum stimulation at rat Nicotinic acetylcholine receptor alpha3-beta4 expressed in Xenopus oocytes; format: cell-based; conditions: Oocyte
[5] = molecular target: T2, Neuronal acetylcholine receptor; alpha4/beta2 (Rattus norvegicus, UniProt P09483+P12390); experiment: Binding affinity towards rat Nicotinic acetylcholine receptor alpha4-beta2 expressed in Xenopus oocytes using [3H]epibatidine as radioligand; format: cell-based, Oocyte
[6] = molecular target: T1, Neuronal acetylcholine receptor; alpha4/beta4; experiment: Binding affinity towards rat Nicotinic acetylcholine receptor alpha4-beta4 expressed in Xenopus oocytes using [3H]epibatidine as radioligand; format: cell-based, Oocyte
[7] = molecular target: Neuronal acetylcholine receptor; alpha4/beta2 (Rattus norvegicus) (UniProt P09483+P12390); experiment: Functional potency measured as maximum stimulation at rat Nicotinic acetylcholine receptor alpha4-beta2 expressed in Xenopus oocytes; format: cell-based; conditions: Oocyte
[8] = molecular target: T3, Neuronal acetylcholine receptor; alpha3/beta4 (Rattus norvegicus, UniProt P04757+P12392); experiment: Binding affinity towards rat Nicotinic acetylcholine receptor alpha3-beta4 expressed in Xenopus oocytes using [3H]epibatidine as radioligand; format: cell-based, Oocyte
[9] = molecular target: T2, Neuronal acetylcholine receptor; alpha4/beta2; experiment: Functional potency measured as stimulation at rat Nicotinic acetylcholine receptor alpha4-beta2 expressed in Xenopus oocytes; format: cell-based, Oocyte
[10] = molecular target: Neuronal acetylcholine receptor; alpha2/beta4 (Rattus norvegicus, UniProt P12389+P12392); experiment: Binding affinity towards rat Nicotinic acetylcholine receptor alpha2-beta4 expressed in Xenopus oocytes using [3H]epibatidine as radioligand; format: cell-based, Oocyte
[11] = molecular target: Neuronal acetylcholine receptor; alpha3/beta2 (Rattus norvegicus, UniProt P04757+P12390); experiment: Binding affinity towards rat Nicotinic acetylcholine receptor alpha3-beta2 expressed in Xenopus oocytes using [3H]epibatidine as radioligand; format: cell-based, Oocyte
[12] = molecular target: T3, Neuronal acetylcholine receptor; alpha3/beta4; experiment: Functional potency measured as stimulation at rat Nicotinic acetylcholine receptor alpha3-beta4 expressed in Xenopus oocytes; format: cell-based, Oocyte
[13] = species: Mus musculus; experiment: Spontaneous activity in mice from ref 15; format: functional
[14] = species: Mus musculus; experiment: Antinociceptive activity was tested in the mouse tail-flick test from ref 17; format: functional
[15] = species: Mus musculus; experiment: Drug discrimination in mice from ref 15
[16] = species: Mus musculus; experiment: Antinociceptive activity was tested in the mouse tail-flick test from ref 15; format: functional
[17] = species: Mus musculus; experiment: Antinociceptive activity was tested in the mouse tail-flick test; format: functional
[18] = species: Mus musculus; experiment: Antinociceptive activity was tested in the mouse hot plate test; format: functional
[19] = species: Mus musculus; experiment: Blockage of antinociceptive activity of nicotine was tested in the mouse hot plate test; format: functional
[20] = molecular target: Neuronal acetylcholine receptor subunit alpha-7 (Rattus norvegicus, UniProt Q05941); experiment: Inhibition of [125I]-iodo-MLA binding to Nicotinic acetylcholine receptor alpha-7 from rat brain membranes; format: cell membranes, Membrane
[21] = molecular target: T2, Neuronal acetylcholine receptor; alpha4/beta2; experiment: Inhibition of [3H]epibatidine binding to Nicotinic acetylcholine receptor alpha4-beta2 from rat membranes
[22] = species: Mus musculus; experiment: Antinociceptive activity was tested in the mouse tail-flick test at 112 nM; format: functional
[23] = molecular target: T2, Neuronal acetylcholine receptor; alpha4/beta2; experiment: Inhibition of [3H]nicotine binding to Nicotinic acetylcholine receptor alpha4-beta2 from rat membranes
[24] = species: Mus musculus; experiment: Blockage of Antinociceptive activity of nicotine was tested in the mouse hot plate test; format: functional
[25] = tested on: Mus musculus; experiment: Antinociceptive activity was tested in the mouse hot plate test at 15 mg/kg; format: functional
[26] = tested on: Mus musculus; experiment: Antinociceptive activity was tested in the mouse tail-flick test at 15 mg/kg; format: functional
[27] = species: Mus musculus; experiment: Blockage of Antinociceptive activity of nicotine was tested in the mouse tail flick test; format: functional
[28] = species: Mus musculus; experiment: Antinociceptive activity was tested in the mouse tail-flick test at 32.5 nM; format: functional
[29] = species: Mus musculus; experiment: animal or person; conditions: Tail
[30] = species: Mus musculus; experiment: animal or person
[31] = molecular target: T2, Neuronal acetylcholine receptor; alpha4/beta2; experiment: [3H](+/-)-epibatidine binding to Nicotinic acetylcholine receptor alpha4-beta2 from rat membranes
[32] = tested on: Mus musculus; experiment: Blockage of antinociceptive activity was tested in the mouse tail-flick test at 0.01 mg/kg; format: functional
[33] = tested on: Mus musculus; experiment: Blockage of antinociceptive activity was tested in the mouse hot plate test at 0.01 mg/kg; format: functional
[34] = molecular target: T2, Neuronal acetylcholine receptor; alpha4/beta2; experiment: inhibition of [3H]nicotine binding to alpha4-beta2 nACh receptor from rat membranes from ref 18

T1 sequence (P09483 whole entry): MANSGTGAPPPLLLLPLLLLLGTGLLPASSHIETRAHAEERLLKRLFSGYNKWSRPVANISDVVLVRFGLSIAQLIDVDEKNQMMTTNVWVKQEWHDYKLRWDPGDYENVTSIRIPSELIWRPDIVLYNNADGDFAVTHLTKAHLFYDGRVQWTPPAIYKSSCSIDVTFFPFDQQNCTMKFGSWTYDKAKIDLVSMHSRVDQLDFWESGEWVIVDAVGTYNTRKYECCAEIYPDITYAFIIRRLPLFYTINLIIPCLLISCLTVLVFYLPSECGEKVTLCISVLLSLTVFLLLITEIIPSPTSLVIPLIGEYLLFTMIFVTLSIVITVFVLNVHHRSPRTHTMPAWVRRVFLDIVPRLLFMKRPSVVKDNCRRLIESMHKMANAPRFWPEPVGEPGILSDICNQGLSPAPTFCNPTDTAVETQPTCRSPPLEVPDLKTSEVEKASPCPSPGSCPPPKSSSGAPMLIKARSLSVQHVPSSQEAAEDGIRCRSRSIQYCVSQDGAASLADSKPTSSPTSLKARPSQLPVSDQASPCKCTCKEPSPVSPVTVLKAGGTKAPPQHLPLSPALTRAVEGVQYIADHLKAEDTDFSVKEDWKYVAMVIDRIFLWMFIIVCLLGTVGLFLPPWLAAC
T1 sequence (P12392 whole entry): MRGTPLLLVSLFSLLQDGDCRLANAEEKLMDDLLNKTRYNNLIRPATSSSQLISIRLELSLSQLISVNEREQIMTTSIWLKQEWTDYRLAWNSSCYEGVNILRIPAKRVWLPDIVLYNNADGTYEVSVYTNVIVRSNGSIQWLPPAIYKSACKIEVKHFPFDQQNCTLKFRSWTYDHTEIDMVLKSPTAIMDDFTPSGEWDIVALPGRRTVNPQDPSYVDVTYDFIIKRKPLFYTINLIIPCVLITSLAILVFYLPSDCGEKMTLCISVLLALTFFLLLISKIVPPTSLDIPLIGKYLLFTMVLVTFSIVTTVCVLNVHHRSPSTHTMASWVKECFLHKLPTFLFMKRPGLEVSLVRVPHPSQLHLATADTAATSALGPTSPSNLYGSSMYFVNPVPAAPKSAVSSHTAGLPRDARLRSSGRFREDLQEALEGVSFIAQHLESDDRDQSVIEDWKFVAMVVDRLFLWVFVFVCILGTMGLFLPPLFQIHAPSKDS
T2 sequence (P09483 whole entry): as the sequence (P09483 whole entry) above
T2 sequence (P12390 whole entry): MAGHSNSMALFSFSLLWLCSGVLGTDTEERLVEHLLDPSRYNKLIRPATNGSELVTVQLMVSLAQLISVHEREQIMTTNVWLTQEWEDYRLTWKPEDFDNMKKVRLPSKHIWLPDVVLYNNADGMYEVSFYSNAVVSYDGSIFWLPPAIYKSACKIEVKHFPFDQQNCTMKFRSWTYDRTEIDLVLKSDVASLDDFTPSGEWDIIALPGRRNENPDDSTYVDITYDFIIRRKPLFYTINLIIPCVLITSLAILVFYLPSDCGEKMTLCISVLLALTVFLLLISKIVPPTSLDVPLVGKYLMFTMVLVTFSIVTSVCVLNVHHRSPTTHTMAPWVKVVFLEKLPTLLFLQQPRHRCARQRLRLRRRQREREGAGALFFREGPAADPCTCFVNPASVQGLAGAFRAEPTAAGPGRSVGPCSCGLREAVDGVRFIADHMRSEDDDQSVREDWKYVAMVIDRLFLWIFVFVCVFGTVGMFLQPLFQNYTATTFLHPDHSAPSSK
Sequence of Neuronal acetylcholine receptor; alpha3/beta2 (P04757 whole entry): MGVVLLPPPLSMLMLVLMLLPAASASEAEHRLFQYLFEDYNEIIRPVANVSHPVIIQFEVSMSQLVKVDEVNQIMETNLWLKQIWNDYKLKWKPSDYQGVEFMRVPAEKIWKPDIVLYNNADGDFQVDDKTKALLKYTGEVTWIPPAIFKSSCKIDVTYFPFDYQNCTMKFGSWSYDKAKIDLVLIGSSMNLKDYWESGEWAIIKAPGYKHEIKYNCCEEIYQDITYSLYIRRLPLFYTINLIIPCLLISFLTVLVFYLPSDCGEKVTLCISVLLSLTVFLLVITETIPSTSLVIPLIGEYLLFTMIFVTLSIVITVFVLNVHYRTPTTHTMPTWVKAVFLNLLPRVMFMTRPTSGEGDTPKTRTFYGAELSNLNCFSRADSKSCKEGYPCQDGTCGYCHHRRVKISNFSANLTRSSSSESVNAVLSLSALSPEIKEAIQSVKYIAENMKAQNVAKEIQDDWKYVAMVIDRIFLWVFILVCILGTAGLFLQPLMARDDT
Sequence of Neuronal acetylcholine receptor; alpha3/beta2 (P12390 whole entry): as the sequence (P12390 whole entry) above
T3 sequence (P04757 whole entry): as the sequence (P04757 whole entry) above
T3 sequence (P12392 whole entry): as the sequence (P12392 whole entry) above
Sequence of Neuronal acetylcholine receptor; alpha2/beta4 (P12389 whole entry): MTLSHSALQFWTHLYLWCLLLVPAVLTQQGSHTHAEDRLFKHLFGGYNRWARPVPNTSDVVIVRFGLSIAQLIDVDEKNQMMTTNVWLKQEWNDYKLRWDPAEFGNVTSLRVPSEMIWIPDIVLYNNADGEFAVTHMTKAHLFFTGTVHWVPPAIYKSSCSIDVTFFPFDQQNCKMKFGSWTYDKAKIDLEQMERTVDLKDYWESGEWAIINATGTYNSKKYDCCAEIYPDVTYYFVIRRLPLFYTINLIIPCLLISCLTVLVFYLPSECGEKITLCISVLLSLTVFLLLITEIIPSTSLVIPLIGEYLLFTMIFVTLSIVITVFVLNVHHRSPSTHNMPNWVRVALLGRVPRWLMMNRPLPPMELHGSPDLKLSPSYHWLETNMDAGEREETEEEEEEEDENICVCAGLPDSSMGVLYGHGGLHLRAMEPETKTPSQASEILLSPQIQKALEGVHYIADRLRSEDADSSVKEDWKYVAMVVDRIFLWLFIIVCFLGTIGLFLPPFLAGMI
Sequence of Neuronal acetylcholine receptor; alpha2/beta4 (P12392 whole entry): as the sequence (P12392 whole entry) above
Sequence of Neuronal acetylcholine receptor; alpha2/beta2 (P12389 whole entry): as the sequence (P12389 whole entry) above
Sequence of Neuronal acetylcholine receptor; alpha2/beta2 (P12390 whole entry): as the sequence (P12390 whole entry) above
Sequence of Neuronal acetylcholine receptor subunit alpha-7 (Q05941 whole entry): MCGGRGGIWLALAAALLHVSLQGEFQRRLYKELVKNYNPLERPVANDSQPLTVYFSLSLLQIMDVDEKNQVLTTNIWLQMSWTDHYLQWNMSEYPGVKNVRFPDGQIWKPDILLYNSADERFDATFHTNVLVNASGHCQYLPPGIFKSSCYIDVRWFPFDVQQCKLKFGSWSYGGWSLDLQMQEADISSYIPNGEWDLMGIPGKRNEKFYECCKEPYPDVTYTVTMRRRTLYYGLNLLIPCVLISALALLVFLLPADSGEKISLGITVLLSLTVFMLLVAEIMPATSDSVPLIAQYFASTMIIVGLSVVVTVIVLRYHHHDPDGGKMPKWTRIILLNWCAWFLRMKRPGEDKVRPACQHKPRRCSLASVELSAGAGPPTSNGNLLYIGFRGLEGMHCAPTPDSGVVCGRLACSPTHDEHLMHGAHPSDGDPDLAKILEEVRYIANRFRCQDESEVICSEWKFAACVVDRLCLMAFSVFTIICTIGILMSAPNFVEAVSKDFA

Brc1ccc(C2CC3CCC2N3)cn1 (stereo unspecified)
EC50 [1]: 20 nM | Max [2]: 102% | Ki [3]: 0.013 nM | Max [4]: 82% | Ki [5]: 0.01 nM | Ki [6]: 0.044 nM | Max [7]: 65% | Ki [8]: 0.22 nM | EC50 [9]: 94 nM | Ki [10]: 0.055 nM | Ki [11]: 0.004 nM | EC50 [12]: 189 nM

Clc1ccc([C@@H]2C[C@H]3CC[C@@H]2N3)cn1 [(+)-EPIBATIDINE]
ED50 [13]: 1.2 µg/kg | ED50 [14]: 7 µg/kg | ED50 [15]: 0.9 µg/kg | ED50 [16]: 6.6 µg/kg

CC(=O)N1C2CCC1C(c1ccc(Cl)nc1)C2 (stereo unspecified)
ED50 [17]: > 1000 µg/kg

Nc1cc(C2CC3CCC2N3)cnc1Cl (stereo unspecified)
ED50 [18]: 20 µg/kg | ED50 [17]: 20 µg/kg | AD50 [19]: 0.03 µg/kg and 0.06 µg/kg | Ki [20]: 13.9 nM | Ki [21]: 0.01 nM

Nc1ccc(C2CC3CCC2N3)cn1 (stereo unspecified)
EC50 [1]: 1840 nM | Max [2]: 41% | Ki [3]: 0.062 nM | Activity [22]: 57% | Max [4]: 82% | Ki [5]: 0.35 nM | Ki [6]: 4.3 nM | Max [7]: 29% | Ki [8]: 7.2 nM | EC50 [9]: 7600 nM | Ki [10]: 3.5 nM | Ki [11]: 0.077 nM | EC50 [12]: 3240 nM

[N-]=[N+]=Nc1cc(C2CC3CCC2N3)cnc1Cl (stereo unspecified) [AZIDOEPIBATIDINE]
Ki [20]: 9.7 nM | Ki [21]: 0.027 nM

CN1[C@@H]2CC[C@H]1[C@H](c1ccc(Cl)nc1)C2
Ki [23]: 0.26 nM

O=c1ccc(C2CC3CCC2N3)c[nH]1 (stereo unspecified)
Ki [3]: > 100 nM | Ki [5]: ~100 nM | Ki [11]: > 100 nM

Fc1ncc(C2CC3CCC2N3)cc1-c1ccccc1 (racemic)
AD50 [24]: 1200 µg/kg | inhibition in vivo at 15 mg/kg [25]: 4% | inhibition in vivo at 15 mg/kg [26]: 3% | AD50 [27]: 500 µg/kg | Ki [21]: 0.24 nM

Fc1cc(C2CC3CCC2N3)cnc1Cl (stereo unspecified)
ED50 [18]: 9 µg/kg | ED50 [17]: 8 µg/kg | Ki [21]: 0.025 nM

CN(C)c1ccc(C2CC3CCC2N3)cn1 (stereo unspecified)
Ki [3]: > 100 nM | Ki [5]: > 100 nM | Activity [28]: 10% | Ki [11]: > 100 nM

CCCN1C2CCC1C(c1ccc(Cl)nc1)C2 (single isomer, unassigned; (-))
Ki [23]: 10.8 nM

Clc1ccc(C2CC3CCC2N3)cn1 (stereo unspecified) [EPIBATIDINE]
ED50 [29]: 6 µg/kg | Max [2]: 71% | ED50 [17]: > 1000 µg/kg | Max [4]: 39% | ED50 [30]: 4 µg/kg | Max [7]: 58%

CC(=O)OCC[N+](C)(C)C
Max [2]: 98% | Max [4]: 100% | Max [7]: 95%

Clc1ccc([C@H]2C[C@@H]3CC[C@H]2N3)cn1 [(-)-EPIBATIDINE]
ED50 [18]: 4 µg/kg | ED50 [17]: 6 µg/kg | ED50 [13]: 1.8 µg/kg | ED50 [14]: 9 µg/kg | ED50 [15]: 1 µg/kg | ED50 [16]: 6.1 µg/kg

Clc1ncc(C2CC3CCC2N3)cc1Br (stereo unspecified)
ED50 [18]: 20 µg/kg | ED50 [17]: 30 µg/kg | Ki [20]: 152 nM

CCN1C2CCC1C(c1ccc(Cl)nc1)C2 (racemic)
Ki [31]: 13.6 nM

Clc1cc(C2CC3CCC2N3)cnc1Cl (stereo unspecified)
ED50 [18]: 30 µg/kg | ED50 [17]: 50 µg/kg | Ki [20]: 1.12 nM | Ki [21]: 0.014 nM

Ic1ccc(C2CC3CCC2N3)cn1 (stereo unspecified)
Ki [21]: 0.09 nM

c1cncc(C2CC3CCC2N3)c1 (stereo unspecified) [DESCHLOROEPIBATIDINE]
EC50 [1]: 982 nM | Max [2]: 147% | Ki [3]: 0.028 nM | Max [4]: 61% | Ki [5]: 0.0085 nM | Ki [6]: 3.2 nM | Max [7]: 112% | Ki [8]: 11 nM | EC50 [9]: 3630 nM | Ki [10]: 3.3 nM | Ki [11]: 0.0031 nM | EC50 [12]: 702 nM

O=S(=O)(OC(F)(F)F)c1ccc(C2CC3CCC2N3)cn1 (stereo unspecified)
Ki [3]: > 10 nM | Ki [5]: ~100 nM | Ki [11]: ~100 nM

Clc1ncc(C2CC3CCC2N3)cc1-c1ccccc1 (stereo unspecified)
ED50 [18]: 1000 µg/kg | ED50 [17]: 700 µg/kg

Fc1ncc([C@@H]2C[C@H]3CC[C@@H]2N3)cc1-c1ccccc1
AD50 [24]: 2400 µg/kg | inhibition in vivo at 15 mg/kg [25]: 8% | inhibition in vivo at 15 mg/kg [26]: 7% | AD50 [27]: 1000 µg/kg | Ki [21]: 0.24 nM

Clc1ncc(C2CC3CCC2N3)cc1I (stereo unspecified)
Activity [32]: 4% | ED50 [18]: 140 µg/kg | ED50 [17]: 240 µg/kg | Activity [33]: 0% | Ki [21]: 0.008 nM

Cc1ccc(C2CC3CCC2N3)cn1 (stereo unspecified)
Ki [23]: 0.13 nM

Fc1ccc(C2CC3CCC2N3)cn1 (stereo unspecified)
EC50 [1]: 239 nM | Max [2]: 131% | Ki [34]: 0.037 nM | Ki [3]: 0.0024 nM | Max [4]: 40% | Ki [5]: 0.0092 nM | Ki [6]: 0.48 nM | Max [7]: 41% | Ki [8]: 2.1 nM | EC50 [9]: 254 nM | Ki [10]: 1.2 nM | Ki [11]: 0.0038 nM | EC50 [12]: 319 nM

CN1[C@H]2CC[C@@H]1[C@@H](c1ccc(Cl)nc1)C2
Ki [23]: 0.11 nM | ED50 [17]: 9 µg/kg

Fc1ncc([C@H]2C[C@@H]3CC[C@H]2N3)cc1-c1ccccc1
AD50 [24]: 700 µg/kg | inhibition in vivo at 15 mg/kg [25]: 10% | inhibition in vivo at 15 mg/kg [26]: 5% | AD50 [27]: 80 µg/kg | Ki [21]: 0.26 nM
